# Several values for one entry are separate records, joined by “and”; a condition that tells them apart may be missing. Identical values can stand only once.
# Experiments:
# [1] = tested on: immortalized human microglia; assay: N-AS generation in human microglia (LC-MS/MS, Supplementary Fig 6a); assay type: cell-based
# Experimental: (§1) Reactions were quenched by adding equal volume of cold methanol. A 100 μl aliquot of the reaction mixture was mixed with 30 μl of distilled water containing 5 ng ml^−1 of furosemide (internal standard) for 1 min and vigorously mixed with […] of ethyl acetate for 20 min. After centrifugation at 16,000×g for 10 min, the mixtures were kept for 2 h for freezing aqueous phase. The upper ethyl acetate layer was transferred to a clean tube and evaporated to dryness under a gentle stream of nitrogen. Then, the dried extract was reconstituted in 100 µl of mobile phase and 10 µl aliquot of the solution was injected into an Agilent 6470 Triple Quad LC–MS/MS system (Agilent, Wilmington, DE) coupled with an Agilent 1260 HPLC system. Separation was performed on a Synergy Polar RP column (4 μm particle size, 2.0 mm × 150 mm, Phenomenex) using a mobile phase that consisted of methanol and water (95:5, v/v) with 0.1% formic acid at a flow rate of 0.2 ml min^−1. Quantification was carried out using multiple reaction monitoring (MRM) at m/z 340.3→263.3 for N-AS and m/z 328.9→284.8 for furosemide (internal standard) in negative ionization mode and collision energy of 20 eV. […] Also, to confirm N-AS generation in neurons, microglia, and astrocytes, these cells were treated with Aβ, and sonicated in neuronal and glial culture medium. […] To evaluate N-AS in microglia and neurons in vivo, the cells were isolated from WT mice, APP/PS1 mice and APP/PS1 mice treated with N-AS at 9 months of age. The cells were sonicated and resuspended in glial and neuronal culture medium, respectively. A 100 μl aliquot of each cell lysate were used for the determination of N-AS using a method previously described.
# (§2) To confirm the generation and roles of N-AS in neurons, cells from E18 C57BL/6 mice were prepared as previously described. Cortices were dissected and then dissociated followed by incubation in papain (Worthington) at 37 °C for 15 min. […] Aβ 1–42 (10 μM, 24 h, Invitrogen, 03112) was exposed to neurons and the cells were analyzed for the generation and roles of N-AS. […]
# neuron = assay: N-AS generation in primary cultured cells (LC-MS/MS); assay type: cell-based, C57BL/6 mice; parameters: N-AS quantification (Fig 3a): dose or concentration left out as unconfirmed; details: replicates
# Experimental: as §1, §2
# APP/PS1 mice = assay: COX2 mRNA and protein in microglia of mice treated with N-AS or aspirin (Supplementary Fig 7p,q); assay type: in vivo, mouse; details: for COX2 mRNA in microglia: APP/PS1 mice treated, sFig 7p
# Description: Adult neurons and microglia were isolated from the mice brain as previously described. In brief, the cortex of WT (1, 3, 5, or 9-months-old), APP/PS1 (1, 3, 5, or 9-months-old), APP/PS1 treated with N-AS (9-months-old) or APP/PS1 treated with aspirin (9-months-old) mice were minced in Hibernate A (Gibco)/B27 (Invitrogen) medium and dissociated using papain (Worthington) solution. After tissue trituration, cells were separated by Optiprep (Sigma-Aldrich) density gradient centrifugation.
# Samples were lysed in RIPA buffer (Cell signaling Technologies), then subjected to SDS-PAGE and transferred to a nitrocellulose membrane. Membranes were blocked with 5% milk, incubated with primary antibody and then incubated with the appropriate horseradish peroxidase-conjugated secondary antibody. […] We performed densitometric quantification using the ImageJ software (National Institutes of Health). Images have been cropped for presentation.
# Transgenic mouse lines over-expressing the hAPP695swe (APP) and presenilin-1M146V (PS1) mutations were originated from GlaxoSmithKline (Harlow, UK)[32] and maintained as described previously. […] Because APP/PS1 and 5xFAD mice show sex differences in disease progression, we used only male mice. […] Block randomization method was used to allocate the animals to experimental groups. To eliminate the bias, we were blinded in experimental progress such as data collection and data analysis. […] All protocols were approved by the Kyungpook National University Institutional Animal Care and Use Committee.
# For total RNA extraction from the microglia derived from WT, APP/PS1, APP/PS1 mice treated with N-AS, and APP/PS1 mice treated with aspirin, the cells were isolated from the cortex of WT, APP/PS1, APP/PS1 mice treated with N-AS, or aspirin using the methods described above. […] Quantitative real-time PCR was performed using a Corbett research RG-6000 real-time PCR instrument. Primers are described in Supplementary Table 5.
molecule,measurement,setting,value
"CC(=O)SCCNC(=O)CCNC(=O)[C@H](O)C(C)(C)COP(=O)(O)OP(=O)(O)OC[C@H]1O[C@@H](n2cnc3c(N)ncnc32)[C@H](O)[C@@H]1OP(=O)(O)O [Acetyl-CoA, acetyl-CoA]",N-AS generation in human microglia,"[1]; Ab 50mM + Acetyl CoA 100mM, sFig 6a",10.5625 and 12.1817 and 11.3721 and 11.7769
same,"N-AS generation, acetyl-S565 COX2 and SPM secretion, in words",[1]; Aβ-treated human microglia + acetyl-CoA,restored
same,N-AS quantification (Fig 3g),neuron; Ab + supplement,0.4129 and 0.455 and 0.2582 and 0.5811 and 0.497
"CC(=O)Oc1ccccc1C(=O)O [Aspirin, acetylsalicylic acid, reference compound]",COX2 mRNA in microglia,APP/PS1 mice,0.57 and 0.65 and 0.68 and 0.49 and 0.61
"CCCCCCCCCCCCC/C=C/[C@@H](O)[C@H](CO)NC(C)=O [N-AS, N-((2S,3R,E)-1,3-Dihydroxyoctadec-4-en-2-yl)acetamide]",COX2 mRNA in microglia,APP/PS1 mice,0.91 and 0.92 and 1.07 and 1.22 and 1
same,mRNA and protein levels of COX2,APP/PS1 mice; N-AS-treated vs APP/PS1,did not vary
"Ab: Aβ 1–42 (Invitrogen, 03112) used to induce an AD environment in cells","N-AS generation, in words",[1]; Aβ-treated human microglia,reduction of N-AS generation
same,N-AS quantification (Fig 3g),"neuron; Ab, no supplement",0.5069 and 0.4708 and 0.3905 and 0.3625 and 0.4347
same,N-AS quantification (Fig 3a),neuron; Ab,0.5349 and 0.246 and 0.4789 and 0.3905 and 0.3625 and 0.4347

# From article PMC7217877, “N-AS-triggered SPMs are direct regulators of microglia in a model of Alzheimer’s disease” (Nature Communications, 2020)
